Patent publication US20100298141A1, “SUBSTITUTED PYRIDINE N-OXIDE HERBICIDES” (E. I. DU PONT DE NEMOURS AND COMPANY, priority 2007, published 2010)

Assays:
[1] = system: pigweed; assay: Test C pre-/postemergence test; format: in vivo, Amaranthus retroflexus
Outline: (§1)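 Test chemicals were formulated with surfactant in a non-phytotoxic solvent and sprayed both on freshly planted seeds (preemergence) and on 1- to 4-leaf plants of 2–18 cm (postemergence). Flooded-paddy pots received compound directly into 3 cm of standing water, maintained for the test.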

[2] = system: barnyardgrass; assay: Test A pre-/postemergence greenhouse test; format: in vivo, Echinochloa crus-galli; conditions: for Barnyardgrass plant response rating: 0 to 100 scale; for Plant response rating, Barnyardgrass: 0 to 100 scale where 0 is no effect and 100 is complete control
Outline: (§2)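 Herbicidal effect is a visual injury score given about ten days post-treatment by comparison with untreated controls. Preemergence plots received a directed spray onto sown loam–sand soil; postemergence plants, at the one- to two-leaf stage and 2–10 cm tall, were sprayed at the same time.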

[3] = system: umbrella sedge; assay: Test C flooded paddy test; format: in vivo, Cyperus difformis; conditions: Flood
Outline: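 Greenhouse pots flooded to 3 cm above soil at time of treatment received compound via the water, which stayed at that level.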

[4] = system: common (oilseed) sunflower; assay: Test C pre-/postemergence test; format: in vivo, Helianthus annuus
Outline: as §1

[5] = system: yellow nutsedge; assay: Test C pre-/postemergence test; format: in vivo, Cyperus esculentus
Outline: as §1

[6] = system: kochia; assay: Test C pre-/postemergence test; format: in vivo, Kochia scoparia
Outline: as §1

[7] = system: green foxtail; assay: Test C pre-/postemergence test; format: in vivo, Setaria viridis
Outline: as §1

[8] = system: corn; assay: Test C pre-/postemergence test; format: in vivo, Zea mays
Outline: as §1

[9] = system: blackgrass; assay: Test C pre-/postemergence test; format: in vivo, Alopecurus myosuroides
Outline: as §1

[10] = system: cocklebur; assay: Test C pre-/postemergence test; format: in vivo, Xanthium strumarium
Outline: as §1

[11] = system: morningglory; assay: Test A pre-/postemergence greenhouse test; format: in vivo, Ipomoea spp.; conditions: for Morningglory plant response rating: 0 to 100 scale; for Plant response rating, Morningglory: 0 to 100 scale where 0 is no effect and 100 is complete control
Outline: as §2

[12] = system: woolly cupgrass; assay: Test C pre-/postemergence test; format: in vivo, Eriochloa villosa
Outline: as §1

[13] = system: morningglory; assay: Test C pre-/postemergence test; format: in vivo, Ipomoea coccinea
Outline: as §1

[14] = system: soybean; assay: Test C pre-/postemergence test; format: in vivo, Glycine max
Outline: as §1

[15] = system: wheat; assay: Test C pre-/postemergence test; format: in vivo, Triticum aestivum; conditions: for Wheat plant response rating: preemergence, scale 0 (no effect) to 100 (complete control)
Outline: as §1

[16] = system: crabgrass; assay: Test C pre-/postemergence test; format: in vivo, Digitaria sanguinalis
Outline: as §1

[17] = system: Italian ryegrass; assay: Test C pre-/postemergence test; format: in vivo, Lolium multiflorum
Outline: as §1

[18] = 62 g ai/ha, Preemergence, scale 0 to 100
[19] = 125 g ai/ha, preemergence, scale 0 (no effect) to 100 (complete control)
[20] = Preemergence, 31 g ai/ha, scale 0 to 100 (0 no effect, 100 complete control)
[21] = preemergence, 250 g ai/ha, scale 0 (no effect) to 100 (complete control)
[22] = Postemergence, 125 g ai/ha, 0 is no effect, 100 is complete control
[23] = Postemergence, 500 g ai/ha, 0 is no effect, 100 is complete control
[24] = Preemergence, 125 g ai/ha, 0 no effect, 100 complete control
[25] = 31 g ai/ha, scale 0 to 100 (0 no effect, 100 complete control)
[26] = 62 g ai/ha, scale 0 to 100, 0 no effect, 100 complete control, 13 to 15 days
[27] = 125 g ai/ha, scale 0 to 100, 0 no effect, 100 complete control, 13 to 15 days
[28] = 31 g ai/ha, Preemergence, scale 0 to 100
[29] = 62 g ai/ha, preemergence, scale 0 (no effect) to 100 (complete control)
[30] = preemergence, 125 g ai/ha, scale 0 (no effect) to 100 (complete control)

Cc1cc[n+]([O-])c(S(=O)(=O)C(Cl)c2c(C(F)(F)F)nn(C)c2OCC(F)(F)F)c1 (racemic) [Compound 37]
Pigweed plant response rating [1, 18]: 100
Pigweed plant response rating [1, 19]: 100
Plant response rating, Pigweed [1, 20]: 80
Pigweed plant response rating [1, 21]: 100
Barnyardgrass plant response rating [2, 22]: 30
Barnyardgrass plant response rating [2, 23]: 70
Barnyardgrass plant response rating [2, 24]: 90
Plant response rating, Barnyardgrass ([2]; Preemergence, 500 g ai/ha): 100
Plant response rating, Sedge, Umbrella [3, 25]: 60
Plant response rating, Sedge, Umbrella [3, 26]: 85
Plant response rating, Sedge, Umbrella [3, 27]: 95
Plant response rating, Sedge, Umbrella ([3]; 250 g ai/ha, scale 0 to 100, 0 no effect, 100 complete control, 13 to 15 days): 95
Sunflower plant response rating [4, 18]: 0
Sunflower plant response rating [4, 19]: 0
Plant response rating, Sunflower [4, 20]: 0
Sunflower plant response rating [4, 21]: 40
Nutsedge, Yellow plant response rating [5, 18]: 0
Nutsedge, Yellow plant response rating [5, 19]: 80
Plant response rating, Nutsedge, Yellow [5, 20]: 0
Nutsedge, Yellow plant response rating [5, 21]: 80
Kochia plant response rating [6, 18]: 40
Kochia plant response rating [6, 19]: 100
Plant response rating, Kochia [6, 20]: 0
Kochia plant response rating [6, 21]: 100
Plant response rating, Foxtail, Green [7, 20]: 0
Foxtail, Green plant response rating [7, 21]: 100
Corn plant response rating [8, 18]: 5
Corn plant response rating [8, 19]: 50
Plant response rating, Corn [8, 20]: 0
Corn plant response rating [8, 21]: 90
Plant response rating, Blackgrass [9, 20]: 95
Blackgrass plant response rating [9, 21]: 100
Cocklebur plant response rating [10, 18]: 0
Cocklebur plant response rating [10, 19]: 0
Plant response rating, Cocklebur [10, 20]: 0
Cocklebur plant response rating [10, 21]: 0
Morningglory plant response rating [11, 22]: 0
Morningglory plant response rating [11, 23]: 20
Morningglory plant response rating [11, 24]: 0
Plant response rating, Morningglory ([11]; Preemergence, 500 g ai/ha): 80
Cupgrass, Woolly plant response rating [12, 18]: 80
Cupgrass, Woolly plant response rating [12, 19]: 98
Plant response rating, Cupgrass, Woolly [12, 20]: 40
Cupgrass, Woolly plant response rating [12, 21]: 100
Morningglory plant response rating [13, 18]: 0
Morningglory plant response rating [13, 19]: 0
Plant response rating, Morningglory [13, 20]: 0
Morningglory plant response rating [13, 21]: 60
Soybean plant response rating [14, 19]: 10
Plant response rating, Soybean [14, 20]: 0
Soybean plant response rating [14, 21]: 10
Plant response rating, Wheat [15, 20]: 0
Wheat plant response rating ([15]; 250 g ai/ha): 30
Crabgrass, Large plant response rating [16, 18]: 80
Crabgrass, Large plant response rating [16, 19]: 100
Plant response rating, Crabgrass, Large [16, 20]: 55
Crabgrass, Large plant response rating [16, 21]: 100
Plant response rating, Ryegrass, Italian [17, 20]: 0
Ryegrass, Italian plant response rating [17, 21]: 100

Cn1nc(C(F)(F)F)c(C(Cl)S(=O)(=O)c2cccc[n+]2[O-])c1Cl (stereo not drawn) [Compound 12]
Pigweed plant response rating [1, 28]: 100
Pigweed plant response rating [1, 29]: 100
Plant response rating (0 to 100), Pigweed ([1]; Preemergence, 250 g ai/ha): 100
Pigweed plant response rating [1, 30]: 100
Barnyardgrass plant response rating [2, 22]: 50
Barnyardgrass plant response rating [2, 23]: 60
Barnyardgrass plant response rating [2, 24]: 90
Plant response rating, Barnyardgrass ([2]; Preemergence, 500 g ai/ha): 90
Plant response rating, Sedge, Umbrella [3, 25]: 90
Plant response rating, Sedge, Umbrella [3, 26]: 95
Plant response rating, Sedge, Umbrella [3, 27]: 100
Plant response rating, Sedge, Umbrella ([3]; 250 g ai/ha, scale 0 to 100 (0 no effect, 100 complete control)): 100
Sunflower plant response rating [4, 29]: 0
Plant response rating (0 to 100), Sunflower ([4]; Preemergence, 250 g ai/ha): 20
Sunflower plant response rating [4, 30]: 0
Nutsedge, Yellow plant response rating [5, 28]: 45
Nutsedge, Yellow plant response rating [5, 29]: 70
Plant response rating (0 to 100), Nutsedge, Yellow ([5]; Preemergence, 250 g ai/ha): 100
Nutsedge, Yellow plant response rating [5, 30]: 90
Kochia plant response rating [6, 28]: 0
Kochia plant response rating [6, 29]: 0
Plant response rating (0 to 100), Kochia ([6]; Preemergence, 250 g ai/ha): 80
Foxtail, Green plant response rating [7, 28]: 100
Plant response rating (0 to 100), Foxtail, Green ([7]; Preemergence, 250 g ai/ha): 100
Foxtail, Green plant response rating [7, 30]: 100
Corn plant response rating [8, 28]: 0
Corn plant response rating [8, 29]: 0
Plant response rating (0 to 100), Corn ([8]; Preemergence, 250 g ai/ha): 45
Corn plant response rating [8, 30]: 0
Blackgrass plant response rating [9, 28]: 0
Blackgrass plant response rating [9, 29]: 98
Plant response rating (0 to 100), Blackgrass ([9]; Preemergence, 250 g ai/ha): 100
Blackgrass plant response rating [9, 30]: 98
Cocklebur plant response rating [10, 28]: 0
Cocklebur plant response rating [10, 29]: 0
Plant response rating (0 to 100), Cocklebur ([10]; Preemergence, 250 g ai/ha): 0
Cocklebur plant response rating [10, 30]: 0
Morningglory plant response rating [11, 22]: 20
Morningglory plant response rating [11, 23]: 30
Morningglory plant response rating [11, 24]: 0
Plant response rating, Morningglory ([11]; Preemergence, 500 g ai/ha): 60
Cupgrass, Woolly plant response rating [12, 28]: 80
Cupgrass, Woolly plant response rating [12, 29]: 100
Plant response rating (0 to 100), Cupgrass, Woolly ([12]; Preemergence, 250 g ai/ha): 100
Cupgrass, Woolly plant response rating [12, 30]: 100
Morningglory plant response rating [13, 28]: 0
Morningglory plant response rating [13, 29]: 0
Plant response rating (0 to 100), Morningglory ([13]; Preemergence, 250 g ai/ha): 80
Morningglory plant response rating [13, 30]: 5
Soybean plant response rating [14, 28]: 0
Soybean plant response rating [14, 29]: 0
Plant response rating (0 to 100), Soybean ([14]; Preemergence, 250 g ai/ha): 10
Soybean plant response rating [14, 30]: 0
Wheat plant response rating ([15]; 62 g ai/ha): 0
Plant response rating (0 to 100), Wheat ([15]; Preemergence, 250 g ai/ha): 20
Wheat plant response rating ([15]; 125 g ai/ha): 0
Crabgrass, Large plant response rating [16, 28]: 100
Crabgrass, Large plant response rating [16, 29]: 100
Plant response rating (0 to 100), Crabgrass, Large ([16]; Preemergence, 250 g ai/ha): 100
Crabgrass, Large plant response rating [16, 30]: 100
Ryegrass, Italian plant response rating [17, 28]: 0
Ryegrass, Italian plant response rating [17, 29]: 70
Plant response rating (0 to 100), Ryegrass, Italian ([17]; Preemergence, 250 g ai/ha): 85
Ryegrass, Italian plant response rating [17, 30]: 70
